This is an account of results in ChEMBL document CHEMBL6078657, “Thiazolidinedione-based structure modification of ergosterol peroxide provides thiazolidinedione-conjugated derivatives as potent agents against breast cancer cells through a PI3K/AKT/mTOR pathway” (Bioorg Med Chem, 2025).

Data set [1] is described as follows: Antiproliferative activity against human MCF-10A cells assessed as cell viability measured after 48 hrs incubation by MTT assay. Format: toxicity, cell-based.
Data set [2] has as its system HepG2. The experiment in a line: Antiproliferative activity against human HepG2 cells assessed as cell viability measured after 48 hrs incubation by MTT assay. The note with it: HepG2, 48 h. Format: functional, cell-based. (Tetrazolium assays rely on reduction of a dye to a coloured formazan, in cell work by metabolically active cells.)
In data set [3] the test system is MCF7. The experiment in a line: Antiproliferative activity against human MCF7 cells assessed as cell viability measured after 48 hrs incubation by MTT assay. The note with it: MCF7, 48 h. It counts as functional, cell-based.
A short description of data set [4]: Selectivity index, ratio of IC50 for human MCF-10A cells to IC50 for human MCF7 cells. It counts as toxicity. The note with it: MCF-10A cells and MCF7 cells, read-out: Selectivity Index.
Data set [5] concerns A549. Kind of data set: Antiproliferative activity against human A549 cells assessed as cell viability measured after 48 hrs incubation by MTT assay. It counts as functional, cell-based. The conditions noted are these: A549, 48 h.
For data set [6], the system named is MCF7. Kind of data set: Induction of cell cycle arrest in human MCF7 cells assessed as accumulation of cells at G2/M phase at 6 uM measured after 48 hrs by PI staining based flow cytometry analysis (reference value: 16.91%). It counts as functional. (In general: In flow cytometry, cells or beads pass a laser one at a time.)
The test system of data set [7] is MCF7. Kind of data set: Induction of apoptosis in human MCF7 cells assessed as late apoptotic cells at 6 uM measured after 48 hrs incubation by Annexin V-FITC/PI double staining assay (reference value: 0.68%). It counts as functional.
Data set [8] deals with MCF7. Kind of data set: Induction of cell cycle arrest in human MCF7 cells assessed as accumulation of cells at S phase at 6 uM measured after 48 hrs by PI staining based flow cytometry analysis (reference value: 24.67%). Format: functional.
In data set [9] the test system is MCF7. The experiment in a line: Induction of apoptosis in human MCF7 cells assessed as decrease in mitochondrial membrane potential by measuring increase in JC-1 monomer (green fluorescence) at 6 uM incubated for 48 hrs by JC-1 staining based flow cytometry analysis (reference value: 2.96%). It counts as functional. The arrangement: scale not given: the % may be the effect or the level left.

For data set [10], the system named is MCF7. Kind of data set: Induction of cell cycle arrest in human MCF7 cells assessed as accumulation of cells at G0/G1 phase at 6 uM measured after 48 hrs by PI staining based flow cytometry analysis (reference value: 58.42%). It counts as functional.
Data set [11] concerns MCF7. Kind of data set: Induction of apoptosis in human MCF7 cells assessed as viable cells at 6 uM measured after 48 hrs incubation by Annexin V-FITC/PI double staining assay (reference value: 92.8%). It counts as functional. The note with it: read-out: Activity.
In data set [12] the test system is MCF7. Kind of data set: Induction of apoptosis in human MCF7 cells assessed as necrotic cells at 6 uM measured after 48 hrs incubation by Annexin V-FITC/PI double staining assay (reference value: 0.77%). It counts as functional.
The subject of data set [13] is MCF7. Kind of data set: Induction of apoptosis in human MCF7 cells assessed as early apoptotic cells at 6 uM measured after 48 hrs incubation by Annexin V-FITC/PI double staining assay (reference value: 5.73%). It counts as functional.

With `Cc1ccc(/C=C2\SC(=O)N(CC(=O)NCCNC(=O)O[C@H]3CC[C@]4(C)[C@H]5CC[C@]6(C)[C@@H]([C@H](C)/C=C/[C@H](C)C(C)C)CC[C@H]6[C@@]56C=C[C@]4(C3)OO6)C2=O)cc1`, the IC50 at 48 h in data set [1] turned out to be 24.1 µM. Also, the concentration for half-maximal inhibition (IC50) in data set [2] was 6.82 µM; in [3], 4.71 µM; in [5], 7.18 µM. In data set [4], the selectivity ratio was 5.11.
Turning to `COc1ccc(/C=C2\SC(=O)N(CC(=O)NCCNC(=O)O[C@H]3CC[C@]4(C)[C@H]5CC[C@]6(C)[C@@H]([C@H](C)/C=C/[C@H](C)C(C)C)CC[C@H]6[C@@]56C=C[C@]4(C3)OO6)C2=O)c(OC)c1OC`, in [1], the IC50 at 48 h is 30.1 µM. Moreover, the results for the IC50 in data set [2], in data set [3] and in data set [5] were 5.77 µM, 4.26 µM and 5.08 µM, respectively. In data set [4], the selectivity ratio was 7.07.
For the compound `CC(C)[C@@H](C)/C=C/[C@@H](C)[C@H]1CC[C@@H]2[C@]1(C)CC[C@H]1[C@]23C=C[C@]2(C[C@@H](OC(=O)NCCNC(=O)CN4C(=O)S/C(=C\c5ccccc5)C4=O)CC[C@]12C)OO3`, the IC50 at 48 h in [1] was 41.6 µM. For the same compound, the IC50 came out at 7.95 µM in [2], 6.8 µM in data set [3] and 11.4 µM in data set [5]. Besides, in [4], the selectivity ratio came to 6.12.
For `CC(C)[C@@H](C)/C=C/[C@@H](C)[C@H]1CC[C@@H]2[C@]1(C)CC[C@H]1[C@]23C=C[C@]2(C[C@@H](OC(=O)NCCNC(=O)CN4C(=O)S/C(=C\c5ccc(Cl)cc5)C4=O)CC[C@]12C)OO3`, the IC50 at 48 h in [1] was found to be 28.9 µM. In addition, the values for the IC50 in data set [2], in [3] and in data set [5] were 8.92 µM, 5.9 µM and 8.91 µM, respectively. For the same compound, the selectivity ratio in data set [4] is 4.9.
For the compound `CC(C)[C@@H](C)/C=C/[C@@H](C)[C@H]1CC[C@@H]2[C@]1(C)CC[C@H]1[C@]23C=C[C@]2(C[C@@H](OC(=O)CN4C(=O)S/C(=C/c5ccc(F)c(Cl)c5)C4=O)CC[C@]12C)OO3`, the IC50 in data set [2] was 15.8 µM; in [3], 11.1 µM; in [5] it was 7.92 µM.
In the case of `COc1ccccc1/C=C1/SC(=O)N(CC(=O)O[C@H]2CC[C@]3(C)[C@H]4CC[C@]5(C)[C@@H]([C@H](C)/C=C/[C@H](C)C(C)C)CC[C@H]5[C@@]45C=C[C@]3(C2)OO5)C1=O`, the results for the half-inhibitory concentration (IC50) in data set [2], in data set [3] and in [5] were 18.9 µM, 14.3 µM and 13.1 µM, respectively.
The matching figures for `COc1cccc(/C=C2\SC(=O)N(CC(=O)N3CCN(C(=O)O[C@H]4CC[C@]5(C)[C@H]6CC[C@]7(C)[C@@H]([C@H](C)/C=C/[C@H](C)C(C)C)CC[C@H]7[C@@]67C=C[C@]5(C4)OO7)CC3)C2=O)c1`: 12.7 µM, 14.3 µM and 10.1 µM.
Turning to `COc1ccc(/C=C2\SC(=O)N(CC(=O)NCCNC(=O)O[C@H]3CC[C@]4(C)[C@H]5CC[C@]6(C)[C@@H]([C@H](C)/C=C/[C@H](C)C(C)C)CC[C@H]6[C@@]56C=C[C@]4(C3)OO6)C2=O)cc1OC`, the IC50 at 48 h in data set [1] turned out to be 20.8 µM. Besides, the IC50 was 6.18 µM in data set [2], 5.33 µM in data set [3] and 8.54 µM in data set [5]. Besides, the selectivity ratio in data set [4] stood at 3.89.
As for `CC(C)[C@@H](C)/C=C/[C@@H](C)[C@H]1CC[C@@H]2[C@]1(C)CC[C@H]1[C@]23C=C[C@]2(C[C@@H](OC(=O)N4CCN(C(=O)CN5C(=O)S/C(=C\c6ccccc6)C5=O)CC4)CC[C@]12C)OO3`, the IC50 came out at 9.71 µM in data set [2], 8.48 µM in data set [3] and 6.05 µM in [5].
Turning to `COc1ccc(/C=C2\SC(=O)N(CC(=O)N3CCN(C(=O)O[C@H]4CC[C@]5(C)[C@H]6CC[C@]7(C)[C@@H]([C@H](C)/C=C/[C@H](C)C(C)C)CC[C@H]7[C@@]67C=C[C@]5(C4)OO7)CC3)C2=O)cc1`, the IC50 worked out at 8.85 µM in data set [2], 13.7 µM in data set [3] and 6.24 µM in data set [5].
In the case of `COc1ccc(/C=C2/SC(=O)N(CC(=O)O[C@H]3CC[C@]4(C)[C@H]5CC[C@]6(C)[C@@H]([C@H](C)/C=C/[C@H](C)C(C)C)CC[C@H]6[C@@]56C=C[C@]4(C3)OO6)C2=O)c(OC)c1OC`, the IC50 in [2] amounted to 10.9 µM; in data set [3], 9.66 µM; in [5], 9.1 µM.
With `COc1cccc(/C=C2/SC(=O)N(CC(=O)O[C@H]3CC[C@]4(C)[C@H]5CC[C@]6(C)[C@@H]([C@H](C)/C=C/[C@H](C)C(C)C)CC[C@H]6[C@@]56C=C[C@]4(C3)OO6)C2=O)c1`, the IC50 came out at 15.3 µM in [2], 17 µM in data set [3] and 10.8 µM in data set [5].
The matching figures for `CC(C)[C@@H](C)/C=C/[C@@H](C)[C@H]1CC[C@@H]2[C@]1(C)CC[C@H]1[C@]23C=C[C@]2(C[C@@H](OC(=O)CN4C(=O)S/C(=C/c5cccs5)C4=O)CC[C@]12C)OO3`: 17.3 µM, 16.6 µM and 7.4 µM.
The matching figures for `CC(C)[C@@H](C)/C=C/[C@@H](C)[C@H]1CC[C@H]2C3=CC=C4C[C@@H](OC(=O)NCCNC(=O)CN5C(=O)S/C(=C\C6CC6)C5=O)CC[C@]4(C)[C@H]3CC[C@]12C`: more than 80 µM, more than 80 µM and more than 80 µM.
The matching figures for `CC(C)[C@@H](C)/C=C/[C@@H](C)[C@H]1CC[C@@H]2[C@]1(C)CC[C@H]1[C@]23C=C[C@]2(C[C@@H](OC(=O)NCCNC(=O)CN4C(=O)S/C(=C\c5ccc(C(C)(C)C)cc5)C4=O)CC[C@]12C)OO3`: 9.86 µM, 10.7 µM and 6.68 µM.
For the compound `CC(C)[C@@H](C)/C=C/[C@@H](C)[C@H]1CC[C@@H]2[C@]1(C)CC[C@H]1[C@]23C=C[C@]2(C[C@@H](OC(=O)N4CCN(C(=O)CN5C(=O)CSC5=O)CC4)CC[C@]12C)OO3`, the IC50 is 8.97 µM in data set [2], 6.37 µM in [3] and 4.82 µM in data set [5].
For `CC(C)[C@@H](C)/C=C/[C@@H](C)[C@H]1CC[C@@H]2[C@]1(C)CC[C@H]1[C@]23C=C[C@]2(C[C@@H](OC(=O)CN4C(=O)S/C(=C/c5ccccc5F)C4=O)CC[C@]12C)OO3`, the values for the IC50 in data set [2], in data set [3] and in data set [5] were 12.5 µM, 14.4 µM and 11.4 µM, respectively.
Take `CC(C)[C@@H](C)/C=C/[C@@H](C)[C@H]1CC[C@@H]2[C@]1(C)CC[C@H]1[C@]23C=C[C@]2(C[C@@H](OC(=O)NCCNC(=O)CN4C(=O)S/C(=C\C5CC5)C4=O)CC[C@]12C)OO3`: the IC50 at 48 h in [1] came to 35.9 µM. The values for the IC50 in data set [2], in data set [3] and in data set [5] were 6.02 µM, 5.49 µM and 3.32 µM, respectively. Further, the selectivity ratio in [4] stood at 6.55.
Take `CC(C)[C@@H](C)/C=C/[C@@H](C)[C@H]1CC[C@@H]2[C@]1(C)CC[C@H]1[C@]23C=C[C@]2(C[C@@H](OC(=O)N4CCN(C(=O)CN5C(=O)S/C(=C\c6cccc7ccccc67)C5=O)CC4)CC[C@]12C)OO3`: the figures for the IC50 in data set [2], in data set [3] and in data set [5] were 14.5 µM, 9.41 µM and 7.88 µM, respectively.
In the same order, the values of `CC(C)[C@@H](C)/C=C/[C@@H](C)[C@H]1CC[C@@H]2[C@]1(C)CC[C@H]1[C@]23C=C[C@]2(C[C@@H](OC(=O)N4CCN(C(=O)CN5C(=O)S/C(=C\c6ccoc6)C5=O)CC4)CC[C@]12C)OO3` are 19.8 µM, 16.7 µM and 10.4 µM.
As to `CC(C)[C@@H](C)/C=C/[C@@H](C)[C@H]1CC[C@@H]2[C@]1(C)CC[C@H]1[C@]23C=C[C@]2(C[C@@H](O)CC[C@]12C)OO3` [ERGOSTEROL PEROXIDE], the Activity in [6] is 19.66%; in data set [7] it was 0.45%; in data set [8], 18.74%; in data set [9], 11.3%; in data set [10] it was 61.61%; in [12], 0.47%. Besides, the Activity in data set [13] is reported as 8.97%. Further, the IC50 in data set [2] is 18.1 µM; in [3], 19.4 µM; in [5] it was 15 µM. The viability at 6 µM in [11] stood at 90.1%.
Take `CC(C)[C@@H](C)/C=C/[C@@H](C)[C@H]1CC[C@@H]2[C@]1(C)CC[C@H]1[C@]23C=C[C@]2(C[C@@H](OC(=O)NCCNC(=O)CN4C(=O)S/C(=C\c5ccc(Br)cc5)C4=O)CC[C@]12C)OO3`: the IC50 at 48 h in data set [1] worked out at 45.3 µM. For the same compound, the IC50 is 7.34 µM in [2], 4.39 µM in data set [3] and 7.9 µM in [5]. In addition, the selectivity ratio in data set [4] is 10.3.
Consider `CC(C)[C@@H](C)/C=C/[C@@H](C)[C@H]1CC[C@@H]2[C@]1(C)CC[C@H]1[C@]23C=C[C@]2(C[C@@H](OC(=O)N4CCN(C(=O)CN5C(=O)S/C(=C\c6ccc(Cl)cc6)C5=O)CC4)CC[C@]12C)OO3`, for which the values for the IC50 in data set [2], in data set [3] and in data set [5] were 9.58 µM, 8.94 µM and 5.94 µM, respectively.

For orientation: IC50 means the concentration at which inhibition is half-maximal.
